Test results from patent publication US20250282752A1, “Quinazoline Derivative Salt Crystal Form, Preparation Method and Application” (WEISHANG (SHANGHAI) BIO-PHARMACEUTICAL CO., LTD., priority 2018, published 2025).
Counter-ions that a name gives are not always drawn. Like-named read-outs stand apart in the source and are kept apart here.

How the values were obtained:
[1] = test system: PC-9 tumor cell (EGFR Del 19 mutation); assay: CellTiter-Glo cell viability, PC-9 tumor cells; type: cell-based; conditions: 72 hours, read-out: Inhibition of growth of PC-9 tumor cell (EGFR Del 19 mutation), IC50
Protocol: (§1) Add 100 microliters of CellTiter-Glo reagent to each well and mix on an orbital shaker for 2 minutes to induce cell lysis. The plate was incubated at room temperature for 10 minutes to stabilize the luminescence signal. The luminescence signal was recorded on the TECAN Infinite M1000 Pro instrument.

[2] = test system: Glioma PDX with EGFRVIII mutation; assay: CellTiter-Glo cell viability, glioma tumor cells; type: cell-based
Protocol: as §1

EGFRV3 (EGFRVIII) = EGFRV3 (EGFRVIII) (Homo sapiens, UniProt P00533, DELINS30-297G); assay: Western blot of […] phosphorylation; type: cell-based; conditions: FIG. 21
Source text: FIG. 21 is a schematic diagram of the inhibition of […] phosphorylation by quinazoline derivatives of the present invention;
It can be seen from Table 22 that the quinazoline derivative (I) with the configuration of R according to the present invention has unexpected […] mutation activity, which is >100 times higher activity than the enantiomer activity while has similar biological activity for EGFR Del 19 activating mutation.

[3] = Blood-brain barrier penetration in rats; type: in vivo, rat; conditions: oral, four hours after administration
Protocol: To determine whether the quinazoline derivative (I) can cross the blood-brain barrier (BBB), the test compound was administered to rats orally. Four hours after the administration, the rats were killed, blood and brain tissue were collected, and the concentration of the test compound was analyzed. Brain penetration is defined as the ratio of the concentration of the compound in brain tissue to the concentration in plasma. Crossing the blood-brain barrier is the ratio of the free concentration of the drug in the brain tissue to the free concentration of the drug in the plasma. P-glycoprotein is an efflux protein of the blood-brain barrier, which discharges the P-glycoprotein substrate […]. Breast cancer resistance protein is an efflux protein from the blood-brain barrier, which excretes […].

P-glycoprotein = P-glycoprotein (Homo sapiens, UniProt P08183); assay: P-gp efflux substrate; type: in vitro ADME
[4] = biological target: T1, Breast cancer resistance protein (BCRP) (Homo sapiens, UniProt Q9UNQ0); assay: BCRP efflux substrate; type: in vitro ADME
T1 sequence (Q9UNQ0 1-655): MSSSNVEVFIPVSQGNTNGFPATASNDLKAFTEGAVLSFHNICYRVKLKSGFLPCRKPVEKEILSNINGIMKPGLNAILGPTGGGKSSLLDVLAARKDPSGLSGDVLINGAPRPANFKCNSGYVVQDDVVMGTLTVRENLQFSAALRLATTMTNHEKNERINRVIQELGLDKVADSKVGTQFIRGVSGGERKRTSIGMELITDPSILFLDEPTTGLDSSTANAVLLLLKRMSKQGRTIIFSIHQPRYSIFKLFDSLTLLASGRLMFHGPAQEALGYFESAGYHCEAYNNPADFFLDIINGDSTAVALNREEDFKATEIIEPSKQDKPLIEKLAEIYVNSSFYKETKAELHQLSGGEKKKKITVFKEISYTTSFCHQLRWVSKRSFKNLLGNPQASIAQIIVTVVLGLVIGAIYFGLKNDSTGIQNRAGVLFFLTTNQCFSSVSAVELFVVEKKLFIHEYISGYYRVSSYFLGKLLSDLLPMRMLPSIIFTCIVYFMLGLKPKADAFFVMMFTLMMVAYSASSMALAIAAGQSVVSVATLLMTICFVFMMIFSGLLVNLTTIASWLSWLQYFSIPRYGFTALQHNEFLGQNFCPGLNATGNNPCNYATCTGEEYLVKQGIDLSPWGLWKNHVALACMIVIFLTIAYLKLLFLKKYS

[5] = test system: patient primary brain tumor tissue with EGFRVIII mutation; assay: Subcutaneous PDX mouse model of glioma with […] mutation; type: in vivo; conditions: orally, twice a day, three weeks
Protocol: The patient's primary tumor tissue (brain tumor) was implanted under the skin of the mouse, and the tumor grew to about 150 cubic millimeters, and the medication was started for three weeks. […] The second group of quinazoline derivatives (I) single agent, 3 mg/kg, orally, twice a day, the third group of quinazoline derivatives (I) single agent, 10 mg/kg, orally, two times a day, the fourth group of quinazoline derivatives (I) is a single agent, 20 mg/kg, orally, twice a day.

[6] = Equilibrium solubility in water; type: physicochemical; conditions: room temperature, 24 hours, listed as quinazoline derivative (I) free base
Protocol: Experimental method: Weigh about 10 mg of solid sample (free base and various salt forms and crystal forms), add 1.5 mL of water, and after equilibrate at room temperature for 24 hours, take out 0.3 mL of turbid solution, and centrifuge to separate the lower solid and supernatant. After the supernatant was filtered through a 0.45 μm (PTFE) filter, the concentration of free alkali was tested.

EGFR enzyme = EGFR enzyme (Homo sapiens, UniProt P00533); assay: EGFR enzyme inhibition mechanism (ADP-Glo, ATP titration); type: biochemical; conditions: ATP diluted from 600 uM, EGFR 0.4 nM to 0.0125 nM; FIG. 24
Protocol: In the experiment of the quinazoline derivative (I) of the present invention on the mechanism of inhibiting EGFR, the EGFR enzyme was added to the 384-well plate from 6 concentrations diluted in equal proportions (2 times) of 0.4 nM to 0.0125 nM and 0 concentration in polyE4Y1 solution, incubate for 15 minutes, add 7 concentrations of ATP diluted from 600 uM in equal proportions (2 times) to react for 60 minutes, add ADP-Glo reagent and detection reagent for 40 minutes to measure RLU signal. […] The benefits of this mechanism of action are obvious. The quinazoline derivative (I) of the present invention has this mechanism of action, showing high activity and high selectivity, and has the characteristics of small side effects and resistance to drug resistance.

[7] = TGA/DSC behaviour during heating; type: physicochemical; conditions: heating process; for weight loss during heating (TGA): FIG. 23A; for stability of crystal form during heating (DSC): FIG. 23B
[8] = Rat pharmacokinetic study; type: in vivo; conditions: rats; for bioavailability: intravenous 1-2 mg/kg, oral 2-40 mg/kg
Protocol: In the rat pharmacokinetic study, a group of rats (three rats) were injected intravenously with 1-2 mg/kg, and the second group of rats (three rats) were orally administered 2-40 mg/kg at 7 time points (0.25, 0.5, 1, 2, 4, 8, 16 hours) of the quinazoline derivative (I) of the present invention. Take blood to measure the concentration of the quinazoline derivative (I) of the present invention in the blood, and calculate the peak area and half-life. The calculation method of bioavailability is: (peak area of drug oral/oral dose)/(peak area of drug intravenous injection/intravenous dose)×100%.

[9] = listed as quinazoline derivatives (I)
[10] = listed as quinazoline derivative fumarate salt

Sequence of P-glycoprotein (P08183 whole entry): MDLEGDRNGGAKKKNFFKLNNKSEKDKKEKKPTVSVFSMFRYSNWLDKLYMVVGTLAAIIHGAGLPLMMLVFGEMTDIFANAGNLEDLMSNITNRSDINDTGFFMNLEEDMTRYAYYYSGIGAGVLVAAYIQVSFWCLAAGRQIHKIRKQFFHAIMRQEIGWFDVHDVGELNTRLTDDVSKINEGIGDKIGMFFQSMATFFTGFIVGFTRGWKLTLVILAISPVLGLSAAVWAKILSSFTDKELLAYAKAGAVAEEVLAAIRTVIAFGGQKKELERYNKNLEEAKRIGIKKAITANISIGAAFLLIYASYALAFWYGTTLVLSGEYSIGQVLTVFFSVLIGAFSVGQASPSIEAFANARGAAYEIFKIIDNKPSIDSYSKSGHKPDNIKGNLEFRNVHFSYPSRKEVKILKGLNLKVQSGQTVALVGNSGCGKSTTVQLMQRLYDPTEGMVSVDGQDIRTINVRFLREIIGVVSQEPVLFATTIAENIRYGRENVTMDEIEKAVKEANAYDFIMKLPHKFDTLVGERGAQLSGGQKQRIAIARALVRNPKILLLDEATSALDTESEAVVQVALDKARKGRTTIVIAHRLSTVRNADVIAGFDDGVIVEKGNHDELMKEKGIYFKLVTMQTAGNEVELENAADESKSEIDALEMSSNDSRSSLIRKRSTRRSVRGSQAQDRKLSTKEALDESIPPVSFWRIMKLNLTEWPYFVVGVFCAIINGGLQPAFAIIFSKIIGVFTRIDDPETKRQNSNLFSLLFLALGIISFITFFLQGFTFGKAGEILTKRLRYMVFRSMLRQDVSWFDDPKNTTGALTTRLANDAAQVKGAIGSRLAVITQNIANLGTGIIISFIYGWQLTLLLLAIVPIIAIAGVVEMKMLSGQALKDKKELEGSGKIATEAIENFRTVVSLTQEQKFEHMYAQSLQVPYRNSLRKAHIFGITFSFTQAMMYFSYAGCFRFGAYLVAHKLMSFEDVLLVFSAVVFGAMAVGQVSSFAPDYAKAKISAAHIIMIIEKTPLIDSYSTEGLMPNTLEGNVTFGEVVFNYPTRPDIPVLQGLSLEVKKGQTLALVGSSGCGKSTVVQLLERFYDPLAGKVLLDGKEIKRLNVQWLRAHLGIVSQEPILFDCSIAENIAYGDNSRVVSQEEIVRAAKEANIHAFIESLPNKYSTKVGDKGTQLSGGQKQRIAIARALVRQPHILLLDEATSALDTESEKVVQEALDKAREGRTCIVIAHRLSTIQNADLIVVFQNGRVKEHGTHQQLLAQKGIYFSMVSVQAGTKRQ

**Q.** With `C#Cc1cccc(Nc2ncnc3cc(OC)c(O[C@@H]4CCN(C)CC4(F)F)cc23)c1F` [quinazoline derivative (I), (R)-6-[(3,3-difluoro-1-methylpiperidin-4-yl)oxy]-N-(3-Ethynyl-2-fluorophenyl)-7-methoxyquinazolin-4-amine] as the compound, how does the IC50 [1] read?
**A.** 8 nM

**Q.** What about the “EGFRVIII mutation activity relative to the enantiomer” value ([2]; R configuration vs S enantiomer) of the same compound?
**A.** > 100 times

**Q.** What about the IC50 ([2]; read-out: Inhibition of growth of Glioma PDX with EGFRVIII mutation, IC50, 72 hours, CellTiter-Glo) of the same compound?
**A.** 10 nM

**Q.** And the “phosphorylation of EGFRV3” value (EGFRV3 (EGFRVIII))?
**A.** inhibited

**Q.** And the “Blood brain barrier penetration rate (free concentration in brain tissue / free concentration in plasma)” value [3, 9]?
**A.** >50%

**Q.** What about the Kp at 4 h ([3]; rat, brain tissue / plasma (free concentrations), read-out: Blood brain barrier penetration rate (free concentration in brain tissue / free concentration in plasma)) of the same compound?
**A.** > 0.5

**Q.** What about the P-gp efflux substrate (P-glycoprotein) of the same compound?
**A.** not a P-glycoprotein or BCRP substrate

**Q.** What about the P-gp efflux substrate (P-glycoprotein; [9]) of the same compound?
**A.** no

**Q.** What about the BCRP efflux substrate [4] of the same compound?
**A.** not a P-glycoprotein or BCRP substrate

**Q.** And the BCRP efflux substrate [4, 9]?
**A.** no

**Q.** What about the tumor reduction ([5]; 20 mg/kg) of the same compound?
**A.** caused tumor reduction

**Q.** What about the “inhibition of tumor growth vs control group” value ([5]; 3, 10 and 20 mg/kg, FIG. 22) of the same compound?
**A.** good inhibition of tumor growth

**Q.** What about the “equilibrium solubility in water” value [6] of the same compound?
**A.** <5 µg/mL

**Q.** And the “mechanism of inhibiting EGFR” value (EGFR enzyme)?
**A.** non-ATP competition mechanism

**Q.** With `C#Cc1cccc(Nc2ncnc3cc(OC)c(O[C@@H]4CCN(C)CC4(F)F)cc23)c1F` [fumarate crystal form A, (R)-6-[(3,3-difluoro-1-methylpiperidin-4-yl)oxy]-N-(3-Ethynyl-2-fluorophenyl)-7-methoxyquinazolin-4-amine] as the compound, how does the “weight loss during heating (TGA)” value [7] read?
**A.** no significant weight loss

**Q.** And the “weight loss during heating (TGA)” value [7, 10]?
**A.** without significant weight loss

**Q.** What about the “stability of crystal form during heating (DSC)” value [7] of the same compound?
**A.** good stability

**Q.** What about the “stability of crystal form during heating (DSC)” value [7, 10] of the same compound?
**A.** the crystal form is stable during heating

**Q.** And the half-life ([8]; rat, blood)?
**A.** 7.4 h

**Q.** And the bioavailability [8]?
**A.** 80%

**Q.** For `C#Cc1cccc(Nc2ncnc3cc(OC)c(O[C@@H]4CCN(C)CC4(F)F)cc23)c1F` [Hydrochloride crystal form B, (R)-6-[(3,3-difluoro-1-methylpiperidin-4-yl)oxy]-N-(3-Ethynyl-2-fluorophenyl)-7-methoxyquinazolin-4-amine], which bioavailability ([8]; rat, blood, po, read-out: bioavailability) is on record?
**A.** > 60%
